pIC50: −log10 of the molar value.
Biological target: T1, human capsaicin receptor (Homo sapiens, UniProt Q8NER1)
T1 construct: pBK-CMV expression construct encoding the full length human capsaicin receptor; expressed in transfected cells
Assay: Calcium mobilization assay, determination of antagonist activity (Example 6)
Type: cell-based
Conditions: Table II
Protocol: A cDNA encoding full length human capsaicin receptor (SEQ ID NO: 1, 2 or 3 of U.S. Pat. No. 6,482,611) was subcloned in the plasmid pBK-CMV (Stratagene, La Jolla, Calif.) for recombinant expression in mammalian cells.
Human embryonic kidney (HEK293) cells were transfected with the pBK-CMV expression construct encoding the full length human capsaicin receptor using standard methods. The transfected cells were selected for two weeks in media containing G418 (400 μg/ml) to obtain a pool of stably transfected cells. Independent clones were isolated from this pool by limiting dilution to obtain clonal stable cell lines for use in subsequent experiments.
This Example illustrates representative calcium mobilization assays for use in evaluating test compounds for agonist and antagonist activity.
Cells transfected with expression plasmids (as described in Example 4) and thereby expressing human capsaicin receptor are seeded and grown to 70-90% confluency in FALCON black-walled, clear-bottomed 96-well plates (#3904, BECTON-DICKINSON, Franklin Lakes, N.J.). The culture medium is emptied from the 96 well plates and FLUO-3 AM calcium sensitive dye (Molecular Probes, Eugene, Oreg.) is added to each well (dye solution: 1 mg FLUO-3 AM, 440 μL DMSO and 440 pi 20% pluronic acid in DMSO, diluted 1:250 in Krebs-Ringer HEPES (KRH) buffer (25 mM HEPES, 5 mM KCl, 0.96 mM NaH2PO4, 1 mM MgSO4, 2 mM CaCl2, 5 mM glucose, 1 mM probenecid, pH 7.4), 50 μl diluted solution per well). Plates are covered with aluminum foil and incubated at 37° C. for 1-2 hours in an environment containing 5% CO2. After the incubation, the dye is emptied from the plates, and the cells are washed once with KRH buffer, and resuspended in KRH buffer.
To measure the ability of a test compound to agonize or antagonize a calcium mobilization response in cells expressing capsaicin receptors to capsaicin or other vanilloid agonist, the EC50 of the agonist capsaicin is first determined. An additional 20 μl of KRH buffer and 1 μl DMSO is added to each well of cells, prepared as described above. 100 μl capsaicin in KRH buffer is automatically transferred by the FLIPR instrument to each well. Capsaicin-induced calcium mobilization is monitored using either FLUOROSKAN ASCENT (Labsystems; Franklin, Mass.) or FLIPR (fluorometric imaging plate reader system; Molecular Devices, Sunnyvale, Calif.) instruments. Data obtained between 30 and 60 seconds after agonist application are used to generate an 8-point concentration response curve, with final capsaicin concentrations of 1 nM to 3 μM. KALEIDAGRAPH software (Synergy Software, Reading, Pa.) is used to fit the data to the equation: y=a*(1/(1+(b/x)^c)) to determine the 50% excitatory concentration (EC50) for the response. In this equation, y is the maximum fluorescence signal, x is the concentration of the agonist or antagonist (in this case, capsaicin), a is the Emax, b corresponds to the EC50 value and c is the Hill coefficient. Determination of Agonist Activity
Test compounds are dissolved in DMSO, diluted in 20 μl KRH buffer so that the final concentration of test compounds in the assay well is between 1 μM and 5 μM, and added to cells prepared as described above. The 96 well plates containing prepared cells and test compounds are incubated in the dark, at room temperature for 0.5 to 6 hours. It is important that the incubation not continue beyond 6 hours. Just prior to determining the fluorescence response, 100 pi capsaicin in KRH buffer at twice the EC50 concentration determined as described above is automatically added by the FLIPR instrument to each well of the 96 well plate for a final sample volume of 200 μl and a final capsaicin concentration equal to the EC50. The final concentration of test compounds in the assay wells is between 1 μM and 5 μM. […]

[1] = determined as described in Example 6, class symbol
[2] = IC50 determined as described in Example 6

T1 sequence (Q8NER1 whole entry): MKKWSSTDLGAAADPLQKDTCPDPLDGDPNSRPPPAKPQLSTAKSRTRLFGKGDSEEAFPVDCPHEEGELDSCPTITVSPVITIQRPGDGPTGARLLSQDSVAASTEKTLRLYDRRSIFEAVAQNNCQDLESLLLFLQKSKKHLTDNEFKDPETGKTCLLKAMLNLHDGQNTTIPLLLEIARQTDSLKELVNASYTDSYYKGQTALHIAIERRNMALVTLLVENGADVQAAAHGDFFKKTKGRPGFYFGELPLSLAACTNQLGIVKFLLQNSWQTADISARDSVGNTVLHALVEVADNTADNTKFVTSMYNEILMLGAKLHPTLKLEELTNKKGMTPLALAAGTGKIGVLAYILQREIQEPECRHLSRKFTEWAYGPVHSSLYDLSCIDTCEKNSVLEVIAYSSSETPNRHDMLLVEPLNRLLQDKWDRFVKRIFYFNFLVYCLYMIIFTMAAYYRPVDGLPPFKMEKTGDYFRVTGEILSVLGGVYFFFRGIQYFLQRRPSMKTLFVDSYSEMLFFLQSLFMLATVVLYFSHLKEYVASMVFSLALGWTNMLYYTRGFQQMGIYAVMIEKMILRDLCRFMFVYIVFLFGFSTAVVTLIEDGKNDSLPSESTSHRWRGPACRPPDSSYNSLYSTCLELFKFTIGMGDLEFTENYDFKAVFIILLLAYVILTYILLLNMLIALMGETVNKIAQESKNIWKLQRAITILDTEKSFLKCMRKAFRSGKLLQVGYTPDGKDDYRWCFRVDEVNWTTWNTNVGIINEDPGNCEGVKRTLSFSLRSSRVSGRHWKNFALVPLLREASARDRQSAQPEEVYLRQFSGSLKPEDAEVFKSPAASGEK

Row | SMILES | pIC50 [1] | pIC50 [2]
1 | Cc1cccc(-c2nc(N3CCCCCC3)nc(N3CCN(c4ncccc4C(F)(F)F)CC3)n2)c1 [Example 262, 1-(4-(3-methylphenyl)-6-{4-[3-(trifluoromethyl)pyridin-2-yl]piperazin-1-yl}-1,3,5-triazin-2-yl)azepane] | ≥ 6.00 | 
2 | Cc1cccc(-c2nc(N3CCN(c4ncccc4C(F)(F)F)CC3)nc(N3CC(C)OC(C)C3)n2)c1 (stereo not drawn) [Example 263, 2-(2,6-dimethylmorpholin-4-yl)-4-(3-methylphenyl)-6-{4-[3-(trifluoromethyl)pyridin-2-yl]piperazin-1-yl}-1,3,5-triazine] | ≥ 6.00 | 
3 | Fc1ccc(-c2nc(N3CCCCCC3)nc(N3CCN(c4ncccc4C(F)(F)F)CC3)n2)cc1Cl [Example 265, 1-(4-(3-chloro-4-fluorophenyi)-6-{4-[3-(trifluoromethyl)pyridin-2-yl]piperazin-1-yl}-1,3,5-triazin-2-yl)azepane] | ≥ 6.00 | 
4 | CC1CN(c2nc(-c3ccc(F)c(Cl)c3)nc(N3CCN(c4ncccc4C(F)(F)F)CC3)n2)CC(C)O1 (stereo not drawn) [Example 266, 2-(3-chloro-4-fluorophenyl)-4-(2,6-dimethylmorpholin-4-yl)-6-{4-[3-(trifluoromethyl)pyridin-2-yl]piperazin-1-yl}-1,3,5-triazine] | ≥ 6.00 | 
5 | Cc1ccccc1-c1nc(N2CCOCC2)nc(N2CCN(c3ccccn3)CC2)n1 [Example 268, 2-(2-methylphenyl)-4-morpholin-4-yl-6-(4-pyridin-2-ylpiperazin-1-yl)-1,3,5-triazine] | ≥ 6.00 | 
6 | Cc1ccc(C)c(-c2nc(N3CCOCC3)nc(N3CCN(c4ccccn4)CC3)n2)c1 [Example 269, 2-(2,5-dimethylphenyl)-4-morpholin-4-yl-6-(4-pyridin-2-ylpiperazin-1-yl)-1,3,5-triazine] | ≥ 6.00 | 
7 | c1ccc(N2CCN(c3nc(-c4cccc5ccccc45)nc(N4CCOCC4)n3)CC2)nc1 [Example 270, 2-morpholin-4-yl-4-(1-naphthyl)-6-(4-pyridin-2-ylpiperazin-1-yl)-1,3,5-triazine] | ≥ 6.00 | 
8 | Cc1cccc(-c2nc(N3CCOCC3)nc(N3CCN(c4ccccn4)CC3)n2)c1C [Example 271, 2-(2,3-dimethylphenyl)-4-morpholin-4-yl-6-(4-pyridin-2-ylpiperazin-1-yl)-1,3,5-triazine] | ≥ 6.00 | 
9 | Cc1ccc(F)cc1-c1nc(N2CCOCC2)nc(N2CCN(c3ccccn3)CC2)n1 [Example 272, 2-(5-fluoro-2-methylphenyl)-4-morpholin-4-yl-6-(4-pyridin-2-ylpiperazin-1-yl)-1,3,5-triazine] | ≥ 6.00 | 
10 | Cc1cc(F)ccc1-c1nc(N2CCOCC2)nc(N2CCN(c3ccccn3)CC2)n1 [Example 273, 2-(4-fluoro-2-methylphenyl)-4-morpholin-4-yl-6-(4-pyridin-2-ylpiperazin-1-yl)-1,3,5-triazine] | ≥ 6.00 | 
11 | CCc1ccccc1-c1nc(N2CCOCC2)nc(N2CCN(c3ccccn3)CC2)n1 [Example 274, 2-(2-ethylphenyl)-4-morpholin-4-yl-6-(4-pyridin-2-ylpiperazin-1-yl)-1,3,5-triazine] | ≥ 6.00 | 
12 | Cc1ccc(-c2nc(N3CCOCC3)nc(N3CCN(c4ccccn4)CC3)n2)c2ccccc12 [Example 276, 2-(4-methyl-1-naphthyl)-4-morpholin-4-yl-6-(4-pyridin-2-ylpiperazin-1-yl)-1,3,5-triazine] | ≥ 6.00 | 
13 | Fc1ccc(F)c(-c2nc(N3CCOCC3)nc(N3CCN(c4ccccn4)CC3)n2)c1 [Example 422, 2-(2,5-difluorophenyl)-4-morpholin-4-yl-6-(4-pyridin-2-ylpiperazin-1-yl)-1,3,5-triazine] |  | ≥ 6.00
14 | Fc1ccc(-c2nc(N3CCOCC3)nc(N3CCN(c4ccccn4)CC3)n2)c(F)c1 [Example 423, 2-(2,4-difluorophenyl)-4-morpholin-4-yl-6-(4-pyridin-2-ylpiperazin-1-yl)-1,3,5-triazine] |  | ≥ 6.00
15 | Fc1ccc(-c2nc(N3CCOCC3)nc(N3CCN(c4ccccn4)CC3)n2)cc1F [Example 424, 2-(3,4-difluorophenyl)-4-morpholin-4-yl-6-(4-pyridin-2-ylpiperazin-1-yl)-1,3,5-triazine] |  | ≥ 6.00
16 | Fc1ccc(-c2nc(N3CCOCC3)nc(N3CCN(c4ncccc4C(F)(F)F)CC3)n2)cc1Cl [Example 426, 2-(3-chioro-4-fluorophenyl)-4-morpholin-4-yl-6-{4-[3-(trifluoromethyl)pyridin-2-yl]piperazin-1-yl}-1,3,5-triazine] |  | ≥ 6.00
17 | Fc1ccc(-c2nc(N3CCOCC3)nc(N3CCN(c4ncccc4Cl)CC3)n2)cc1Cl [Example 427, 2-(3-chloro-4-fluorophenyl)-4-[4-(3-chloropyridin-2-yl)piperazin-1-yl]-6-morpholin-4-yl-1,3,5-triazine] |  | ≥ 6.00
18 | Fc1ccc(-c2nc(N3CCOCC3)nc(N3CCN(c4ncccc4C(F)(F)F)CC3)n2)cc1F [Example 428, 2-(3,4-difluorophenyl)-4-morpholin-4-yl-6-{4-[3-(trifluoromethyl)pyridin-2-yl]piperazin-1-yl}-1,3,5-triazine] |  | ≥ 6.00
19 | COc1ccc(C(C)C)cc1-c1nc(N2CCOCC2)nc(N2CCN(c3ccccn3)CC2)n1 [Example 430, 2-(5-isopropyl-2-methoxyphenyl)-4-morpholin-4-yl-6-(4-pyridin-2-ylpiperazin-1-yl)-1,3,5-triazine] |  | ≥ 6.00
20 | COc1ccc(Cl)cc1-c1nc(N2CCOCC2)nc(N2CCN(c3ccccn3)CC2)n1 [Example 431, 2-(5-chloro-2-methoxyphenyl)-4-morpholin-4-yl-6-(4-pyridin-2-ylpiperazin-1-yl)-1,3,5-triazine] |  | ≥ 6.00
21 | c1ccc(N2CCN(c3nc(-c4cccc5c4oc4ccccc45)nc(N4CCOCC4)n3)CC2)nc1 [Example 432, 2-dibenzo[b,d]furan-4-yl-4-morpholin-4-yl-6-(4-pyridin-2-ylpiperazin-1-yl)-1,3,5-triazine] |  | ≥ 6.00
22 | CCOC(=O)c1cccc(-c2nc(N3CCOCC3)nc(N3CCN(c4ccccn4)CC3)n2)c1 [Example 434, ethyl 3-[4-morpholin-4-yl-6-(4-pyridin-2-ylpiperazin-1-yl)-1,3,5-triazin-2-yl]benzoate] |  | ≥ 6.00
23 | N#Cc1cccc(-c2nc(N3CCOCC3)nc(N3CCN(c4ncccc4C(F)(F)F)CC3)n2)c1 [Example 435, 3-(4-morpholin-4-yl-6-{4-[3-(trifluoromethyl)pyridin-2-yl]piperazin-1-yl}-1,3,5-triazin-2-yl)benzonitrile] |  | ≥ 6.00
24 | N#Cc1ccc(-c2nc(N3CCOCC3)nc(N3CCN(c4ncccc4C(F)(F)F)CC3)n2)cc1 [Example 436, 4-(4-morpholin-4-yl-6-{4-[3-(trifluoromethyl)pyridin-2-yl]piperazin-1-yl}-1,3,5-triazin-2-yl)benzonitrile] |  | ≥ 6.00
25 | FC(F)(F)c1ccc(-c2nc(N3CCOCC3)nc(N3CCN(c4ncccc4C(F)(F)F)CC3)n2)cc1 [Example 437, 2-morpholin-4-yl-4-[4-(trifluoromethyl)phenyl]-6-{4-[3-(trifluoromethyl)pyridin-2-yl]piperazin-1-yl}-1,3,5-triazine] |  | ≥ 6.00
26 | FC(F)(F)c1cccc(-c2nc(N3CCOCC3)nc(N3CCN(c4ncccc4C(F)(F)F)CC3)n2)c1 [Example 438, 2-morpholin-4-yl-4-[3-(trifluoromethyl)phenyl]-6-{4-[3-(trifluoromethyl)pyridin-2-yl]piperazin-1-yl}-1,3,5-triazine] |  | ≥ 6.00
27 | C=CCN1CCN(c2nc(-c3ccccc3)nc(N3CCN(c4ncccc4C(F)(F)F)CC3)n2)CC1 [Example 440, 2-(4-allylpiperazin-1-yl)-4-phenyl-6-{4-[3-(trifluoromethyl)pyridin-2-yl]piperazin-1-yl}-1,3,5-triazine] |  | ≥ 6.00
